In brackets after ≈: the same amount, converted by molar mass. Where two headings read alike, the source gives them in different places.
Assays:
HIV-1(IIIB) = experiment: Knock-out concentrations: breakthrough of HIV-1(IIIB)-induced cytopathicity in CEM cell cultures; assay type: cell-based; settings: for activity at 0.1 µg/mL / activity at 0.5 µg/mL / activity at 2.5 µg/mL: Human immunodeficiency virus 1, IIIB, CCRF-CEM, read-out: HIV-1-induced cytopathicity in cell culture; for activity at 0.1 µg/mL: 0.1 μg/ml; for activity at 0.5 µg/mL: 0.5 μg/ml; for activity at 2.5 µg/mL: 2.5 μg/ml
Method: The culture medium consisted of RPMI 1640 containing 10% fetal bovine serum, 2 mM L-glutamine, and 0.075% NaHCO3. The multiplicity of the initial infection was ~1000 times the CCID50 (50% cell culture infective dose). Passages were performed every 3 to 4 days by adding 0.5 to 1.0 ml of the infected culture supernatant to 5 ml of a suspension containing 4×10^5 uninfected CEM cells per ml. Syncytium formation was used as a parameter of virus breakthrough in the cell cultures. In the drug combination experiments, the compounds were combined at the same initial concentrations as used for the two lowest concentrations in the single-drug experiments.
The drug concentrations were kept constant throughout the whole time period of the experiment (10 subcultivations or 35 days). Then the drugs were removed from the cell cultures, and the cells were further subcultured for at least 5 additional passages.

HIV-1 RT (WT) = HIV-1 RT (WT) (Human immunodeficiency virus type 1 group M subtype B, UniProt P03366); experiment: biochemical
Method: The reaction mixture (50 μl) contained 50 mM Tris.HCl, pH 7.8, 5 mM dithiothreitol, […] glutathione, 500 μM EDTA, 150 mM KCl, 5 mM MgCl2, 1.25 μg of bovine serum albumin, a fixed concentration of the labeled substrate [2,8-^3 H]dGTP (2.95 μM, 2 μCi), a fixed concentration of the template/primer poly(C).oligo(dG) (0.1 mM), 0.06% Triton X-100, 5 μl of inhibitor solution [containing various concentrations (5-fold dilutions) of the test compounds], and 5 μl of the RT preparation. The reaction mixtures were incubated at 37° C. for 30 min, at which time 100 μl of calf thymus DNA (150 μg/ml), 2 ml of Na4 P2 07 (0.1 M in 1M HCl), and 2 ml of trichloroacetic acid (10%, v/v) were added. The solutions were kept on ice for 30 min, after which the acid-insoluble material was washed and analyzed for radioactivity.
Compounds I, III, IV and V were evaluated for their inhibitory effect on recombinant HIV-1 RT.

HIV-1(IIIB) (WT) = experiment: microbe, parasite or virus in culture; assay type: cell-based; settings: Human immunodeficiency virus 1, IIIB, CCRF-CEM
Procedure, shortened: (§1)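 Syncytium formation read out after 4 days at 37° C. Cultures: CEM cells, 250,000/ml, infected at 100 50% cell culture infective doses/ml and added to compound dilutions.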

HIV-1/Pyr (181-Cys) = experiment: Sensitivity of mutant HIV-1 strain in CEM cell cultures; assay type: cell-based; settings: Human immunodeficiency virus 1, CCRF-CEM; CEM cells, Table 1; read-out: 50% Effective Concentration
Procedure, shortened: as §1

HIV-1/Nev (106-Ala) = experiment: as above; assay type: cell-based; settings: Human immunodeficiency virus 1, CCRF-CEM; CEM cells, Table 1; read-out: 50% Effective Concentration
Procedure, shortened: as §1

HIV-1/I(0.1) 103-Asn = experiment: as above; assay type: cell-based; settings: Human immunodeficiency virus 1, CCRF-CEM; Table 5; read-out: EC50
Procedure, shortened: as §1

[1] = system: HIV-1/V(0.1) 101-Ile + 141-Glu; experiment: as above; assay type: cell-based; settings: Human immunodeficiency virus 1, CCRF-CEM; Table 5; read-out: EC50
Procedure, shortened: as §1

HIV-1/II(0.1) 100-Ile = experiment: as above; assay type: cell-based; settings: Human immunodeficiency virus 1, CCRF-CEM; Table 5; read-out: EC50
Procedure, shortened: as §1

HIV-1/III(0.1) 103-Asn = experiment: as above; assay type: cell-based; settings: Human immunodeficiency virus 1, CCRF-CEM; Table 5; read-out: EC50
Procedure, shortened: as §1

HIV-1/V(0.5) 103-Asn = experiment: as above; assay type: cell-based; settings: Human immunodeficiency virus 1, CCRF-CEM; Table 5; read-out: EC50
Procedure, shortened: as §1

[2] = system: HIV-1/TIBO R82150 (100-Ile); experiment: as above; assay type: cell-based; settings: Human immunodeficiency virus 1, CCRF-CEM; CEM cells, Table 1; read-out: 50% Effective Concentration
Procedure, shortened: as §1

[3] = system: HIV-1/TIBO R82913 (103-Asn); experiment: as above; assay type: cell-based; settings: Human immunodeficiency virus 1, CCRF-CEM; CEM cells, Table 1; read-out: 50% Effective Concentration
Procedure, shortened: as §1

[4] = system: HIV-1/TSAO-m^3 T (138-Lys); experiment: as above; assay type: cell-based; settings: Human immunodeficiency virus 1, CCRF-CEM; CEM cells, Table 1; read-out: 50% Effective Concentration
Procedure, shortened: as §1

[5] = 936 h, day 39 post infection, compound absent from day 35
[6] = 1008 h, day 42 post infection, compound absent from day 35
[7] = 1104 h, day 46 post infection, compound absent from day 35
[8] = 1176 h, day 49 post infection, compound absent from day 35
[9] = 1272 h, day 53 post infection, compound absent from day 35

Compound: O=C(OC1CCCCC1)c1cc(NC(=S)c2ccsc2)ccc1Cl [Compound V]
- prevention of virus breakthrough, fold more efficient than BHAP (HIV-1(IIIB)): at least 5 fold
- prevention of virus breakthrough, fold more efficient than nevirapine (HIV-1(IIIB)): ≥ 25 fold
- activity at 0.1 µg/mL (HIV-1(IIIB); 96 h, day 4 post infection): 0%
- activity at 0.5 µg/mL (HIV-1(IIIB); 96 h, day 4 post infection): 0%
- activity at 2.5 µg/mL (HIV-1(IIIB); 96 h, day 4 post infection): 0%
- activity at 0.1 µg/mL (HIV-1(IIIB); 192 h, day 8 post infection): 37.5%
- activity at 0.5 µg/mL (HIV-1(IIIB); 192 h, day 8 post infection): 0%
- activity at 2.5 µg/mL (HIV-1(IIIB); 192 h, day 8 post infection): 0%
- activity at 0.1 µg/mL (HIV-1(IIIB); 264 h, day 11 post infection): 50%
- activity at 0.5 µg/mL (HIV-1(IIIB); 264 h, day 11 post infection): 0%
- activity at 2.5 µg/mL (HIV-1(IIIB); 264 h, day 11 post infection): 0%
- activity at 0.1 µg/mL (HIV-1(IIIB); 336 h, day 14 post infection): 100%
- activity at 0.5 µg/mL (HIV-1(IIIB); 336 h, day 14 post infection): 18.5%
- activity at 2.5 µg/mL (HIV-1(IIIB); 336 h, day 14 post infection): 0%
- activity at 0.1 µg/mL (HIV-1(IIIB); 408 h, day 17 post infection): 100%
- activity at 0.5 µg/mL (HIV-1(IIIB); 408 h, day 17 post infection): 75%
- activity at 2.5 µg/mL (HIV-1(IIIB); 408 h, day 17 post infection): 0%
- activity at 0.1 µg/mL (HIV-1(IIIB); 504 h, day 21 post infection): 100%
- activity at 0.5 µg/mL (HIV-1(IIIB); 504 h, day 21 post infection): 100%
- activity at 2.5 µg/mL (HIV-1(IIIB); 504 h, day 21 post infection): 0%
- activity at 0.1 µg/mL (HIV-1(IIIB); 600 h, day 25 post infection): 100%
- activity at 0.5 µg/mL (HIV-1(IIIB); 600 h, day 25 post infection): 100%
- activity at 2.5 µg/mL (HIV-1(IIIB); 600 h, day 25 post infection): 0%
- activity at 0.1 µg/mL (HIV-1(IIIB); 672 h, day 28 post infection): 100%
- activity at 0.5 µg/mL (HIV-1(IIIB); 672 h, day 28 post infection): 100%
- activity at 2.5 µg/mL (HIV-1(IIIB); 672 h, day 28 post infection): 0%
- activity at 0.1 µg/mL (HIV-1(IIIB); 768 h, day 32 post infection): 100%
- activity at 0.5 µg/mL (HIV-1(IIIB); 768 h, day 32 post infection): 100%
- activity at 2.5 µg/mL (HIV-1(IIIB); 768 h, day 32 post infection): 0%
- activity at 0.1 µg/mL (HIV-1(IIIB); 840 h, day 35 post infection): 100%
- activity at 0.5 µg/mL (HIV-1(IIIB); 840 h, day 35 post infection): 100%
- activity at 2.5 µg/mL (HIV-1(IIIB); 840 h, day 35 post infection): 0%
- activity at 0.1 µg/mL (HIV-1(IIIB); [5]): 100%
- activity at 0.5 µg/mL (HIV-1(IIIB); [5]): 100%
- activity at 2.5 µg/mL (HIV-1(IIIB); [5]): 0%
- activity at 0.1 µg/mL (HIV-1(IIIB); [6]): 100%
- activity at 0.5 µg/mL (HIV-1(IIIB); [6]): 100%
- activity at 2.5 µg/mL (HIV-1(IIIB); [6]): 0%
- activity at 0.1 µg/mL (HIV-1(IIIB); [7]): 100%
- activity at 0.5 µg/mL (HIV-1(IIIB); [7]): 100%
- activity at 2.5 µg/mL (HIV-1(IIIB); [7]): 0%
- activity at 0.1 µg/mL (HIV-1(IIIB); [8]): 100%
- activity at 0.5 µg/mL (HIV-1(IIIB); [8]): 100%
- activity at 2.5 µg/mL (HIV-1(IIIB); [8]): 0%
- activity at 0.1 µg/mL (HIV-1(IIIB); [9]): 100%
- activity at 0.5 µg/mL (HIV-1(IIIB); [9]): 100%
- activity at 2.5 µg/mL (HIV-1(IIIB); [9]): 0%
- concentration at which virus emerged (virus breakthrough) (HIV-1(IIIB); tested at 0.1, 0.5 and 2.5 μg/ml, 35 days): 0.5 µg/mL
- IC50 (HIV-1 RT (WT); range stated for the compounds together, poly(C).oligo(dG), 2.95 μM [2,8-3H]dGTP, read-out: IC50 on recombinant HIV-1 RT): 47.4 to 203 nM
- IC50 (HIV-1 RT (WT); substrate [2,8-3H]dGTP 2.95 μM, template poly(rC)oligo(dG), read-out: IC50, anti-HIV-1 RT (WT) activity (converted)): 203 nM
- EC50 (HIV-1(IIIB) (WT); CEM cells, Table 1, read-out: 50% Effective Concentration): 0.03 µg/mL (≈ 0.079 µM)
- EC50 (HIV-1(IIIB) (WT); HIV-1 (III8), Table 5, read-out: EC50): 0.03 µg/mL (≈ 0.079 µM)
- IC50 (HIV-1(IIIB) (WT); range stated for Compounds I-V together, read-out: 50% inhibitory concentration, HIV-1(IIIB) replication in CEM cells): 0.004 to 0.05 µg/mL (≈ 0.0105 to 0.132 µM)
- EC50 (HIV-1/Pyr (181-Cys)): 0.077 µg/mL (≈ 0.203 µM)
- EC50 (HIV-1/Nev (106-Ala)): 0.073 µg/mL (≈ 0.192 µM)
- EC50 (HIV-1/I(0.1) 103-Asn): 1.75 µg/mL (≈ 4.61 µM)
- EC50 [1]: 0.3 µg/mL (≈ 0.79 µM)
- EC50 (HIV-1/II(0.1) 100-Ile): ≥ 5 µg/mL
- EC50 (HIV-1/III(0.1) 103-Asn): 0.35 µg/mL (≈ 0.921 µM)
- EC50 (HIV-1/V(0.5) 103-Asn): ≥ 5 µg/mL
- EC50 [2]: 0.85 µg/mL (≈ 2.24 µM)
- EC50 [3]: > 1 µg/mL
- EC50 [4]: 0.075 µg/mL (≈ 0.197 µM)

From patent US5968910A, “Compositions containing two or three inhibitors of different HIV reverse transcriptases” (priority 1994, dated 1999)
